Results taken from patent publication US20260070945A1, “MACROCYCLIC IMMUNOMODULATORS” (Bristol-Myers Squibb Company, priority 2022, published 2026).
*1 amine or outer side, *2 acyl side, *3 side chain or, on linkers, in order; H or OH if unused. Where a SMILES comes first, the peptide text is derived from it. Bridges are numbered along the chain shown (N, C = ends). [ ]: non-standard residue; d: D form. The star is where a group is joined. ξ: configuration not given here. X5 = O=C([C@H](Cc1ccc(-c2cc(F)c(F)c(F)c2)cc1)N[*:1])[*:2]; Phe(3-CF3) = N[C@@H](Cc1cccc(C(F)(F)F)c1)C(=O)O; Phe(4-COOH) = N[C@@H](Cc1ccc(C(=O)O)cc1)C(=O)O; Bip = N[C@@H](Cc1ccc(-c2ccccc2)cc1)C(=O)O; NH(CH2)14COOH = O=C(O)CCCCCCCCCCCCCCN*; Phe(3-Me) = Cc1cccc(C[C@H](N)C(=O)O)c1; βAsp = O=C(O)[C@H](CC(=O)[*:2])N[*:1]; His(π-Me) = Cn1cncc1C[C@H](N)C(=O)O; Val(3-OH) = CC(C)(O)[C@H](N)C(=O)O; Cha = N[C@@H](CC1CCCCC1)C(=O)O; Cit = NC(=O)NCCC[C@H](N)C(=O)O; Thr(3ξ) = CC(O)[C@H](N)C(=O)O; Carboxymethyl = O=C(O)C*; NMeA = CN[C@@H](C)C(=O)O; Orn = NCCC[C@H](N)C(=O)O; Aun = NCCCCCCCCCCC(=O)O; Dab = NCC[C@H](N)C(=O)O; AEEA = NCCOCCOCC(=O)O; Sar = CNCC(=O)O

target: T1, PD-1/PD-L1 interaction (PE-labeled human PD-L1-Ig binding to Jurkat cell line over-expressing human PD-1) (Homo sapiens, UniProt Q15116); experiment: Jurkat-PD-1 Cell Binding High-Content Screening Assay (CBA); conditions: Jurkat-hPD-1 cells, PE-labeled PD-L1-Ig 20 nM final; read-out: Jurkat HPD1 PDL1 IC50
T1 construct: expressed in transfected cells; host or cells: Jurkat
Method in brief: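 High-content imaging read-out of PE-PD-L1-Ig binding (20 nM final, 1 h) to Jurkat-hPD-1 cells, after 2 h compound exposure at 37 °C in DMEM with 10% FCS. Nuclei counterstained with Hoechst 33342 after paraformaldehyde fixation.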

T1 sequence (Q15116 25-288): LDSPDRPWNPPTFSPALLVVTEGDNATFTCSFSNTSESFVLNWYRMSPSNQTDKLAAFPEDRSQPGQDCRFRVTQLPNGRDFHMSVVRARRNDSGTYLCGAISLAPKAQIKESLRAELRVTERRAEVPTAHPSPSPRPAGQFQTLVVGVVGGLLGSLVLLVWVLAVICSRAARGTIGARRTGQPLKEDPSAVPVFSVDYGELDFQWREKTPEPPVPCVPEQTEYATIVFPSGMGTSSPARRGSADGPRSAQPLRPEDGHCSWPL

In order of rising IC50:
1. CC[C@H](C)[C@@H]1NC(=O)[C@H](Cc2ccc(-c3ccccc3)cc2)NC(=O)[C@H](CC(C)C)NC(=O)[C@H](Cc2c[nH]c3ccccc23)NC(=O)[C@H](CC(=O)O)NC(=O)[C@H](Cc2ccc(C(=O)O)cc2)NC(=O)[C@H](Cc2ccc(OCC(=O)O)cc2)NC(=O)CSC[C@@H](C(=O)N[C@@H](CCCN)C(=O)NCCOCCOCC(=O)NCCCCCCCCCCC(=O)O)NC(=O)[C@H](CO)NC(=O)[C@H](C(C)C)NC(=O)[C@H](CC2CCCCC2)NC(=O)[C@H](CCN)NC(=O)[C@@H](CC(C)C)NC(=O)[C@H](C)N(C)C1=O [Example 1078] ({CH2CO}-Y(Carboxymethyl)[Phe(4-COOH)]DWL[Bip]I[NMeA][dL][Dab][Cha]VSC[Orn][AEEA][Aun]-OH; thioether N-14)  16.1 nM
2. CC(C)C[C@H]1NC(=O)[C@H](C)N(C)C(=O)[C@H](Cc2ccc(OCC(=O)O)cc2)NC(=O)[C@H](Cc2ccc(-c3ccccc3)cc2)NC(=O)[C@H](Cc2ccc(OCC(=O)O)cc2)NC(=O)[C@H](Cc2cccc(C(F)(F)F)c2)NC(=O)[C@H](CC(=O)O)NC(=O)[C@H](Cc2ccc(OCC(=O)O)cc2)NC(=O)[C@H]([C@@H](C)O)NC(=O)CSC[C@@H](C(=O)N[C@@H](CCN)C(=O)NCCOCCOCC(=O)NCCCCCCCCCCC(=O)O)NC(=O)[C@H](CCC(=O)O)NC(=O)[C@H](C(C)C)NC(=O)[C@H](CC2CCCCC2)NC(=O)[C@H](CCN)NC1=O [Example 1228] ({CH2CO}-TY(Carboxymethyl)D[Phe(3-CF3)]Y(Carboxymethyl)[Bip]Y(Carboxymethyl)[NMeA][dL][Dab][Cha]VEC[Dab][AEEA][Aun]-OH; thioether N-14)  16.9 nM
3. Cc1cccc(C[C@@H]2NC(=O)[C@H](CC(=O)O)NC(=O)[C@H](Cc3ccc(C(=O)O)cc3)NC(=O)[C@H](Cc3ccc(OCC(=O)O)cc3)NC(=O)CSC[C@@H](C(=O)N[C@H](CC(N)=O)C(=O)NCCCCCCCCCCC(=O)O)NC(=O)[C@H](CO)NC(=O)[C@H](C(C)C)NC(=O)[C@H](CC3CCCCC3)NC(=O)[C@H](CCN)NC(=O)[C@@H](CC(C)C)NC(=O)[C@H](C)N(C)C(=O)[C@H](C(C)C)NC(=O)[C@H](Cc3ccc(-c4ccccc4)cc3)NC(=O)[C@H](CC(C)C)NC2=O)c1 [Example 2235] ({CH2CO}-Y(Carboxymethyl)[Phe(4-COOH)]D[Phe(3-Me)]L[Bip]V[NMeA][dL][Dab][Cha]VSC[dN][Aun]-OH; thioether N-14)  20 nM
4. Cc1cccc(C[C@@H]2NC(=O)[C@H](CC(=O)O)NC(=O)[C@H](Cc3ccc(OCC(=O)O)cc3)NC(=O)[C@H](Cc3cncn3C)NC(=O)CSC[C@@H](C(=O)N[C@@H](CCN)C(=O)NCCCCCCCCCCC(=O)O)NC(=O)[C@H](CO)NC(=O)[C@H](C(C)C)NC(=O)[C@H](CC3CCCCC3)NC(=O)[C@H](CCN)NC(=O)[C@@H](CC(C)C)NC(=O)[C@H](C)N(C)C(=O)[C@H](Cc3ccc(O)cc3)NC(=O)[C@H](Cc3ccc(-c4ccccc4)cc3)NC(=O)[C@H](Cc3ccc(OCC(=O)O)cc3)NC2=O)c1 [Example 1281] ({CH2CO}-[His(π-Me)]Y(Carboxymethyl)D[Phe(3-Me)]Y(Carboxymethyl)[Bip]Y[NMeA][dL][Dab][Cha]VSC[Dab][Aun]-OH; thioether N-14)  22.1 nM
5. Cc1cccc(C[C@@H]2NC(=O)[C@H](CC(=O)O)NC(=O)[C@H](Cc3ccc(OCC(=O)O)cc3)NC(=O)[C@H](CCCNC(=N)N)NC(=O)CSC[C@@H](C(=O)N(C)CC(=O)NCCCCCCCCCCC(=O)O)NC(=O)[C@H](CCCNC(N)=O)NC(=O)[C@H](C(C)C)NC(=O)[C@H](CC3CCCCC3)NC(=O)[C@H](CCN)NC(=O)[C@@H](CC(C)C)NC(=O)[C@H](C)N(C)C(=O)[C@H](C(C)C)NC(=O)[C@H](Cc3ccc(-c4ccccc4)cc3)NC(=O)[C@H](C(C)C)NC2=O)c1 [Example 2260] ({CH2CO}-RY(Carboxymethyl)D[Phe(3-Me)]V[Bip]V[NMeA][dL][Dab][Cha]V[Cit]C[Sar][Aun]-OH; thioether N-14)  28.5 nM
6. Cc1cccc(C[C@@H]2NC(=O)[C@H](CC(=O)O)NC(=O)[C@H](Cc3ccc(C(=O)O)cc3)NC(=O)[C@H](Cc3ccc(OCC(=O)O)cc3)NC(=O)CSC[C@@H](C(=O)NCCOCCOCC(=O)NCCCCCCCCCCC(=O)O)NC(=O)[C@H](C(C)O)NC(=O)[C@H](C(C)C)NC(=O)[C@H](CC3CCCCC3)NC(=O)[C@H](CCN)NC(=O)[C@@H](CC(C)C)NC(=O)[C@H](C)N(C)C(=O)[C@H](C(C)C)NC(=O)[C@H](Cc3ccc(-c4ccccc4)cc3)NC(=O)[C@H](CC(C)C)NC2=O)c1 (stereo partly drawn) [Example 2325] ({CH2CO}-Y(Carboxymethyl)[Phe(4-COOH)]D[Phe(3-Me)]L[Bip]V[NMeA][dL][Dab][Cha]V[Thr(3ξ)]C[AEEA][Aun]-OH; thioether N-14)  30 nM
7. CC(C)C[C@H]1NC(=O)[C@H](C)N(C)C(=O)[C@H](Cc2ccc(OCC(=O)O)cc2)NC(=O)[C@H](Cc2ccc(-c3cc(F)c(F)c(F)c3)cc2)NC(=O)[C@H](Cc2ccc(C(=O)O)cc2)NC(=O)[C@H](Cc2cccc(C(F)(F)F)c2)NC(=O)[C@H](CC(=O)O)NC(=O)[C@H](Cc2ccc(OCC(=O)O)cc2)NC(=O)[C@H]([C@@H](C)O)NC(=O)CSC[C@@H](C(=O)N[C@@H](CCN)C(=O)NCCCCCCCCCCC(=O)O)NC(=O)[C@H]([C@@H](C)O)NC(=O)[C@H](C(C)C)NC(=O)[C@H](CC2CCCCC2)NC(=O)[C@H](CCN)NC1=O [Example 1237] ({CH2CO}-TY(Carboxymethyl)D[Phe(3-CF3)][Phe(4-COOH)][X5]Y(Carboxymethyl)[NMeA][dL][Dab][Cha]VTC[Dab][Aun]-OH; thioether N-14)  180 nM
8. CC(C)C[C@@H]1NC(=O)[C@H](Cc2c[nH]c3ccccc23)NC(=O)[C@H](CC(=O)O)NC(=O)[C@H](Cc2ccc(OCC(=O)O)cc2)NC(=O)[C@H](CCCNC(N)=O)NC(=O)CSC[C@@H](C(=O)N[C@@H](CC(N)=O)C(=O)N[C@@H](CC(=O)NCCOCCOCC(=O)NCCCCCCCCCCC(=O)O)C(=O)O)NC(=O)[C@H](CO)NC(=O)[C@H](C(C)C)NC(=O)[C@H](CC2CCCCC2)NC(=O)[C@H](CC(N)=O)NC(=O)[C@@H](CC(C)C)NC(=O)[C@H](C)N(C)C(=O)[C@H](C(C)C)NC(=O)[C@H](Cc2ccc(-c3ccccc3)cc2)NC1=O [Example 2026] ({CH2CO}-[Cit]Y(Carboxymethyl)DWL[Bip]V[NMeA][dL]N[Cha]VSCN[βAsp][AEEA][Aun]-OH; thioether N-14)  237 nM
9. Cc1cccc(C[C@@H]2NC(=O)[C@H](CC(=O)O)NC(=O)[C@H](Cc3ccc(OCC(=O)O)cc3)NC(=O)[C@H]([C@@H](C)O)NC(=O)CSC[C@@H](C(=O)N[C@H](CC(N)=O)C(=O)NCCOCCOCC(=O)NCCCCCCCCCCC(=O)O)NC(=O)[C@H](CCC(=O)O)NC(=O)[C@H](C(C)(C)O)NC(=O)[C@H](CC3CCCCC3)NC(=O)[C@H](CCN)NC(=O)[C@@H](CC(C)C)NC(=O)[C@H](C)N(C)C(=O)[C@H](Cc3ccc(OCC(=O)O)cc3)NC(=O)[C@H](Cc3ccc(-c4ccccc4)cc3)NC(=O)[C@H](Cc3ccc(OCC(=O)O)cc3)NC2=O)c1 [Example 1416] ({CH2CO}-TY(Carboxymethyl)D[Phe(3-Me)]Y(Carboxymethyl)[Bip]Y(Carboxymethyl)[NMeA][dL][Dab][Cha][Val(3-OH)]EC[dN][AEEA][Aun]-OH; thioether N-14)  311 nM

same assay, conditions: PE-labeled PD-L1-Ig 20 nM final, Jurkat-hPD-1 cells; read-out: Jurkat HPD1 PDL1 IC50

In order of falling IC50:
1. Cc1cccc(C[C@@H]2NC(=O)[C@H](CC(=O)O)NC(=O)[C@H](Cc3ccc(OCC(=O)O)cc3)NC(=O)[C@H](C(C)O)NC(=O)CSC[C@@H](C(=O)N[C@@H](CCN)C(=O)NCCOCCOCC(=O)NCCCCCCCCCCCCCCC(=O)O)NC(=O)[C@H](CCC(=O)O)NC(=O)[C@H](C(C)C)NC(=O)[C@H](CC3CCCCC3)NC(=O)[C@H](CCN)NC(=O)[C@@H](CC(C)C)NC(=O)[C@H](C)N(C)C(=O)[C@H](Cc3ccc(OCC(=O)O)cc3)NC(=O)[C@H](Cc3ccc(-c4ccccc4)cc3)NC(=O)[C@H](Cc3ccc(C(=O)O)cc3)NC2=O)c1 (stereo partly drawn) [Example 2603] ({CH2CO}-[Thr(3ξ)]Y(Carboxymethyl)D[Phe(3-Me)][Phe(4-COOH)][Bip]Y(Carboxymethyl)[NMeA][dL][Dab][Cha]VEC[Dab][AEEA]-{NH(CH2)14COOH}; thioether N-14)  405 nM
2. CC(C)C[C@H]1NC(=O)[C@H](C)N(C)C(=O)[C@H](Cc2ccc(OCC(=O)O)cc2)NC(=O)[C@H](Cc2ccc(-c3ccccc3)cc2)NC(=O)[C@H](Cc2ccc(C(=O)O)cc2)NC(=O)[C@H](Cc2cccc(C(F)(F)F)c2)NC(=O)[C@H](CC(=O)O)NC(=O)[C@H](Cc2ccc(OCC(=O)O)cc2)NC(=O)[C@H](C(C)O)NC(=O)CSC[C@@H](C(=O)N[C@@H](CCN)C(=O)NCCCCCCCCCCC(=O)O)NC(=O)[C@H](CO)NC(=O)[C@H](C(C)(C)O)NC(=O)[C@H](CC2CCCCC2)NC(=O)[C@H](Cc2cnc[nH]2)NC1=O (stereo partly drawn) [Example 2575] ({CH2CO}-[Thr(3ξ)]Y(Carboxymethyl)D[Phe(3-CF3)][Phe(4-COOH)][Bip]Y(Carboxymethyl)[NMeA][dL]H[Cha][Val(3-OH)]SC[Dab][Aun]-OH; thioether N-14)  29.6 nM
3. CC(C)C[C@H]1NC(=O)[C@H](C)N(C)C(=O)[C@H](Cc2ccc(C(=O)O)cc2)NC(=O)[C@H](Cc2ccc(-c3ccccc3)cc2)NC(=O)[C@H](Cc2ccc(C(=O)O)cc2)NC(=O)[C@H](Cc2cccc(C(F)(F)F)c2)NC(=O)[C@H](CC(=O)O)NC(=O)[C@H](Cc2ccc(C(=O)O)cc2)NC(=O)[C@H](C(C)O)NC(=O)CSC[C@@H](C(=O)N[C@@H](CCN)C(=O)NCCCCCCCCCCC(=O)O)NC(=O)[C@H](C(C)O)NC(=O)[C@H](C(C)C)NC(=O)[C@H](CC2CCCCC2)NC(=O)[C@H](CCN)NC1=O (stereo partly drawn) [Example 2566] ({CH2CO}-[Thr(3ξ)][Phe(4-COOH)]D[Phe(3-CF3)][Phe(4-COOH)][Bip][Phe(4-COOH)][NMeA][dL][Dab][Cha]V[Thr(3ξ)]C[Dab][Aun]-OH; thioether N-14)  4.5 nM
